Data taken from the supplement of paper PMC12819154, “High-throughput peptide-centric local stability assay extends protein–ligand identification to membrane proteins, tissues and bacteria” (Nature Structural & Molecular Biology, 2025).

Columns and labels:
Experiment in all cases: pEC50 of peptide local stability change
UniProt P23837 = settings: peptide sequence: VDTLRPGQGVGLAVAR; direction: stabilized; replicate design: treated separately
Experimental: (§1)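 Dose-response HT-PELSA: desalted E. coli lysate treated separately per replicate with ATP (10 uM to 10 mM, 7 doses) for 30 min at 25 C, then a 4 min trypsin pulse at 22 C. Peptide ratio vs control was fitted with a 4-parameter log-logistic model (R2 > 0.9 in at least 3 replicates, CV of pEC50 <= 0.25); value is the mean pEC50 across replicates for stabilized or destabilized peptides.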

UniProt P30015 = settings: peptide sequence: TGDTPAQER; direction: stabilized; replicate design: treated separately
Experimental: as §1

UniProt P07821 = settings: peptide sequence: LVDSLSGGER; direction: stabilized; replicate design: treated separately
Experimental: as §1

UniProt P77756 = settings: peptide sequence: ALNHAVSLGMAK; direction: stabilized; replicate design: treated separately
Experimental: as §1

UniProt P31808 = settings: peptide sequence: TGMTFDAQPGR; direction: stabilized; replicate design: treated separately
Experimental: as §1

UniProt P0A9B6 = settings: peptide sequence: SLQSLPWR; direction: stabilized; replicate design: treated separately
Experimental: as §1

UniProt P37760 = settings: peptide sequence: TGQVGWELQR; direction: stabilized; replicate design: treated separately
Experimental: as §1

UniProt P12282 = settings: peptide sequence: NQLNAGCFAAK; direction: stabilized; replicate design: treated separately
Experimental: as §1

UniProt P25741 = settings: peptide sequence: GKDAFAEVK; direction: stabilized; replicate design: treated separately
Experimental: as §1

UniProt P39342 = settings: peptide sequence: AMVIAPCSR; direction: stabilized; replicate design: treated separately
Experimental: as §1

UniProt P75828 = settings: peptide sequence: YLDIINR; direction: stabilized; replicate design: treated separately
Experimental: as §1

UniProt Q46802 = settings: peptide sequence: GAFTGASANGK; direction: stabilized; replicate design: treated separately
Experimental: as §1

UniProt P22188 = settings: peptide sequence: LWCVFGCGGDRDK; direction: stabilized; replicate design: treated separately
Experimental: as §1

UniProt P39383 = settings: peptide sequence: QLVDFADK; direction: stabilized; replicate design: treated separately
Experimental: as §1

UniProt P0DMC5 = settings: peptide sequence: EVMNHITANYLPLVVR; direction: stabilized; replicate design: treated separately
Experimental: as §1

UniProt P07109 = settings: peptide sequence: HVSTHVIFLHQGK; direction: stabilized; replicate design: treated separately
Experimental: as §1

UniProt P75736 = settings: peptide sequence: QQAAAIMR; direction: stabilized; replicate design: treated separately
Experimental: as §1

UniProt P37634 = settings: peptide sequence: HTVQSLIIESLKEK; direction: stabilized; replicate design: treated separately
Experimental: as §1

UniProt P14081 = settings: peptide sequence: LFITAATEGR; direction: stabilized; replicate design: treated separately
Experimental: as §1

UniProt P42593 = settings: peptide sequence: TTGWIHR; direction: stabilized; replicate design: treated separately
Experimental: as §1

UniProt P15038 = settings: peptide sequence: AVVNGEHSLLVLAGAGSGK; direction: stabilized; replicate design: treated separately
Experimental: as §1

UniProt P31060 = settings: peptide sequence: QSQFSHITR; direction: stabilized; replicate design: treated separately
Experimental: as §1

UniProt P0C0L2 = settings: peptide sequence: GQAHWEGDIKR; direction: stabilized; replicate design: treated separately
Experimental: as §1

UniProt P21599 = settings: peptide sequence: VLEVQGMK; direction: stabilized; replicate design: treated separately
Experimental: as §1

UniProt P75796 = settings: peptide sequence: IPEAQTILSR; direction: stabilized; replicate design: treated separately
Experimental: as §1

UniProt P30176 = settings: peptide sequence: AKFEQHAELR; direction: stabilized; replicate design: treated separately
Experimental: as §1

UniProt P76594 = settings: peptide sequence: YLVIQGIK; direction: stabilized; replicate design: treated separately
Experimental: as §1

UniProt P24193 = settings: peptide sequence: DAALIGEVVERK; direction: stabilized; replicate design: treated separately
Experimental: as §1

UniProt P00959 = settings: peptide sequence: LKENGFIK; direction: stabilized; replicate design: treated separately
Experimental: as §1

UniProt P31142 = settings: peptide sequence: FNAEVDEPRPGLR; direction: stabilized; replicate design: treated separately
Experimental: as §1

UniProt P33940 = settings: peptide sequence: EYYPQAK; direction: stabilized; replicate design: treated separately
Experimental: as §1

Sequence of UniProt P39383 (P39383 whole entry): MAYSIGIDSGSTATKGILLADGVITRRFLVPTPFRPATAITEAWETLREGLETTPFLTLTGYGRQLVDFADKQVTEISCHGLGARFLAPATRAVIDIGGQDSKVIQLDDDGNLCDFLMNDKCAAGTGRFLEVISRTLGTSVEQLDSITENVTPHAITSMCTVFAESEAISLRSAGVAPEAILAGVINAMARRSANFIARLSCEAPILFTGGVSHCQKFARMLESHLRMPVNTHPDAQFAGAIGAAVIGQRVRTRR
Sequence of UniProt P30015 (P30015 whole entry): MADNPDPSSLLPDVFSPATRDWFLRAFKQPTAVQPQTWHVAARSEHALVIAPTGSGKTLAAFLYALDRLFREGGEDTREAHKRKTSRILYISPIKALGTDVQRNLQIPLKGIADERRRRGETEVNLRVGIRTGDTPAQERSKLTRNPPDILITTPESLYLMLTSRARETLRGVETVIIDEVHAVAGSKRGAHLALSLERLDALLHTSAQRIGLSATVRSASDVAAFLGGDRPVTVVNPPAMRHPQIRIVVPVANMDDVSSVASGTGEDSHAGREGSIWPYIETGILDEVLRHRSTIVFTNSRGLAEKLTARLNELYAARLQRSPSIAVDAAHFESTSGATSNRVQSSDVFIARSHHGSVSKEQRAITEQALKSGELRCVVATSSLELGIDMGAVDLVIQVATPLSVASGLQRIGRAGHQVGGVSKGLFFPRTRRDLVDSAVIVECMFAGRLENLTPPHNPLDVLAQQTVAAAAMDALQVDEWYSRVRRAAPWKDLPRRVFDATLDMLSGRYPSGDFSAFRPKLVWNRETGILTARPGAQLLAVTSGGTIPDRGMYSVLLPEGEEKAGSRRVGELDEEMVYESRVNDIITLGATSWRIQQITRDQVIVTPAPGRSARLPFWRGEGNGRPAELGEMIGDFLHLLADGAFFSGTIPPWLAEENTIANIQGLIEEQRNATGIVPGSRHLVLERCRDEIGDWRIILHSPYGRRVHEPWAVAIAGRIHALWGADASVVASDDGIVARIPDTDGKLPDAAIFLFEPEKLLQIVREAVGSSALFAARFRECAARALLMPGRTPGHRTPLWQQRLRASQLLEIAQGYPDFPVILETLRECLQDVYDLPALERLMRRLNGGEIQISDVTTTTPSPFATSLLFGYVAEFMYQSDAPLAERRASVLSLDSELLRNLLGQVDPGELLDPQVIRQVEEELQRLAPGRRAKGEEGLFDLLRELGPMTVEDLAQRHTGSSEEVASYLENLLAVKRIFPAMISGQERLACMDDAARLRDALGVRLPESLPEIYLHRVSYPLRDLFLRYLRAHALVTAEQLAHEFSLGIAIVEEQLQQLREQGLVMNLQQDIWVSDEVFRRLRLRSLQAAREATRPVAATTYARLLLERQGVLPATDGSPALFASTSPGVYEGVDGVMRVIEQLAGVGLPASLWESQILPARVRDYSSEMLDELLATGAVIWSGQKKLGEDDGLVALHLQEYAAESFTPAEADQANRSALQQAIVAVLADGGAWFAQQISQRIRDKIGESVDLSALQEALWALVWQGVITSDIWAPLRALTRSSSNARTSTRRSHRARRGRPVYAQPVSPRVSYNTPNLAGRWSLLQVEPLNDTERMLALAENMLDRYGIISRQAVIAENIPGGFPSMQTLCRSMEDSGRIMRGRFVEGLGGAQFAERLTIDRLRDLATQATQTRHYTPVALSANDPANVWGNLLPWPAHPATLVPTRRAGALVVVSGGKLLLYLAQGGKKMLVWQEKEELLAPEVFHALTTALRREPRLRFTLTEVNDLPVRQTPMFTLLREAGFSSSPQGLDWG
Sequence of UniProt P76594 (P76594 whole entry): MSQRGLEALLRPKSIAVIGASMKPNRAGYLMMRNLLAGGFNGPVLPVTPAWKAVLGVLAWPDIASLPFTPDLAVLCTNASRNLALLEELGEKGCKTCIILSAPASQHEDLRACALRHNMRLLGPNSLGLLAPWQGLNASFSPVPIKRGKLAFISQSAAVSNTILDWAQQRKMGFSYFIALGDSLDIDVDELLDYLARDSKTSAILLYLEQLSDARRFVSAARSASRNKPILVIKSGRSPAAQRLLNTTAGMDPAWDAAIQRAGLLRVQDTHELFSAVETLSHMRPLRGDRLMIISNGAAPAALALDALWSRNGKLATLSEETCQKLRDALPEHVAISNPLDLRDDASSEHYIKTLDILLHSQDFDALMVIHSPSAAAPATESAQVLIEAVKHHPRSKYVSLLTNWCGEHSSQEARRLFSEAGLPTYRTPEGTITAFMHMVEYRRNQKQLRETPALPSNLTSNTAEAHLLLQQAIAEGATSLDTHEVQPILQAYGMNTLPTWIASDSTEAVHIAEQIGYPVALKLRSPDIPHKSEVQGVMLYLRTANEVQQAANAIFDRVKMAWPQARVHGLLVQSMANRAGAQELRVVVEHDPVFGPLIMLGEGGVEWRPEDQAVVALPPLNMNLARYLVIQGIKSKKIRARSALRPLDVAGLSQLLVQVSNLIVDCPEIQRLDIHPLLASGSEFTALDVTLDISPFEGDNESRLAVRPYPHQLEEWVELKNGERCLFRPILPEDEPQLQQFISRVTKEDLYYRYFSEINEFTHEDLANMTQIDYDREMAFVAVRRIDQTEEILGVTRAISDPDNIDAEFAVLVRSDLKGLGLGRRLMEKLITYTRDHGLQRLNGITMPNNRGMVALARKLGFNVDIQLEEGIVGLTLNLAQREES
Sequence of UniProt P31808 (P31808 whole entry): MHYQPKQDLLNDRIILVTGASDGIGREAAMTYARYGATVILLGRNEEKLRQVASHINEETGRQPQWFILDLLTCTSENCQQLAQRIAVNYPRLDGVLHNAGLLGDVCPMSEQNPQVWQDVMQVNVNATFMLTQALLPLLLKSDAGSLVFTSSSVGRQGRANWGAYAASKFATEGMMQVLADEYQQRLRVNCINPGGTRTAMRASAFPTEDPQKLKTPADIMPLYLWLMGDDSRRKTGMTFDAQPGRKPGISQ
Sequence of UniProt P14081 (P14081 whole entry): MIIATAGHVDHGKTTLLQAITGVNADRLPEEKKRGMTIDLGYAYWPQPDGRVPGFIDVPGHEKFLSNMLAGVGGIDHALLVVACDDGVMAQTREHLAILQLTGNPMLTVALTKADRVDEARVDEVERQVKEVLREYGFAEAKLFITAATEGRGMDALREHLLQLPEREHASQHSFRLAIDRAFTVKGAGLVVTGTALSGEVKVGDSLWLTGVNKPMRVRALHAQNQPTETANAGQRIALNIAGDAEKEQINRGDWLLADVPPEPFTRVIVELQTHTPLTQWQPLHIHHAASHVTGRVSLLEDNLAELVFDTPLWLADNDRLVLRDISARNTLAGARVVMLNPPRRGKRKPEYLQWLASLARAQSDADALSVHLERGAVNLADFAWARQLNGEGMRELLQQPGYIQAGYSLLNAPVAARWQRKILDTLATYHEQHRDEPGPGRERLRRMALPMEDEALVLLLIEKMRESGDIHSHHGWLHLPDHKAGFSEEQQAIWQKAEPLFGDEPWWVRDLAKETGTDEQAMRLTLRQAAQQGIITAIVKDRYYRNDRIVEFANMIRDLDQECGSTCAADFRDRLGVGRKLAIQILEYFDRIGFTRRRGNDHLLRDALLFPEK
Sequence of UniProt P0C0L2 (P0C0L2 whole entry): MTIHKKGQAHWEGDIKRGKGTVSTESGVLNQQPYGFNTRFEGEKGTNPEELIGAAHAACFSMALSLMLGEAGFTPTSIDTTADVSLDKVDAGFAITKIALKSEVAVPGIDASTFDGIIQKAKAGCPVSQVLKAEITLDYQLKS
Sequence of UniProt P00959 (P00959 whole entry, looked up): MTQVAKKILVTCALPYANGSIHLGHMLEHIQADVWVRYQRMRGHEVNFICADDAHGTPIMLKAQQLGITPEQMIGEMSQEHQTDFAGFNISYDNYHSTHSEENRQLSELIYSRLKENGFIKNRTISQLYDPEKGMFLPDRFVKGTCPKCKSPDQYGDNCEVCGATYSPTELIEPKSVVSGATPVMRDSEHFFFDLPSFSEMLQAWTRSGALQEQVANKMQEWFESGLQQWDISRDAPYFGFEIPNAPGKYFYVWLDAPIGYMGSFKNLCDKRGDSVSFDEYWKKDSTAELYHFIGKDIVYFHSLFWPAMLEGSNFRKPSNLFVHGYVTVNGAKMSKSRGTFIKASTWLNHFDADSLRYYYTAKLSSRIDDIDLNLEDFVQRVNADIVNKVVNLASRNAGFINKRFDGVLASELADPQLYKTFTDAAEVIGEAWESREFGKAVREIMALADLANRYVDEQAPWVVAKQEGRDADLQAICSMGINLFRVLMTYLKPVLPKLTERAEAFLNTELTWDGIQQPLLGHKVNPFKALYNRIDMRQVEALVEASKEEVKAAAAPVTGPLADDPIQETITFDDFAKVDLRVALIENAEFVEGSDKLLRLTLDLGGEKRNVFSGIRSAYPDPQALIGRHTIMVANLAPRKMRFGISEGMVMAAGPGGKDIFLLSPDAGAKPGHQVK
Sequence of UniProt P77756 (P77756 whole entry): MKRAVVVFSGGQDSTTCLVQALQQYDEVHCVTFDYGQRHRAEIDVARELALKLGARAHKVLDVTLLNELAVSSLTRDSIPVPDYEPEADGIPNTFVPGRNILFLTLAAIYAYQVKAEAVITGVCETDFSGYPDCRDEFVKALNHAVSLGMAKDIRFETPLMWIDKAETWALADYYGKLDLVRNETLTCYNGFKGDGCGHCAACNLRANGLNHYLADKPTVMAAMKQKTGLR
Sequence of UniProt P30176 (P30176 whole entry): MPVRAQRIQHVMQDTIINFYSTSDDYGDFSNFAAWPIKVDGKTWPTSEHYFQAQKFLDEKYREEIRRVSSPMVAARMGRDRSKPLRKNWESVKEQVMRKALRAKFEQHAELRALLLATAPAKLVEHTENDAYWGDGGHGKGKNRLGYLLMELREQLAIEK

Nc1ncnc2c1ncn2[C@@H]1O[C@H](COP(=O)(O)OP(=O)(O)OP(=O)(O)O)[C@@H](O)[C@H]1O [adenosine 5'-triphosphate]
Settings | pEC50 of peptide local stability change
UniProt P0A9B6 | 2.62
UniProt P0C0L2 | 3.96
UniProt P0DMC5 | 2.58
UniProt P00959 | 2.99
UniProt P07109 | 3.88
UniProt P07821 | 3.1
UniProt P12282 | 3.44
UniProt P14081 | 3.42
UniProt P15038 | 3.67
UniProt P21599 | 2.4
UniProt P22188 | 3.89
UniProt P23837 | 3.21
UniProt P24193 | 4.4
UniProt P25741 | 3.2
UniProt P30015 | 3.43
UniProt P30176 | 2.71
UniProt P31060 | 2.89
UniProt P31142 | 3.24
UniProt P31808 | 2.09
UniProt P33940 | 3.09
UniProt P37634 | 2.64
UniProt P37760 | 3.12
UniProt P39342 | 4.23
UniProt P39383 | 3.31
UniProt P42593 | 2.95
UniProt P75736 | 2.02
UniProt P75796 | 3.2
UniProt P75828 | 2.65
UniProt P76594 | 2.33
UniProt P77756 | 3.62
UniProt Q46802 | 3.29
